Measured values as given in patent US20160193211A1, “COMBINATIONS OF A BTK INHIBITOR AND FLUOROURACIL FOR TREATING CANCERS” (priority 2013, published 2016).

How the values were obtained:
[1] = system: HCT116 xenografts; assay: In vivo treatment of drug-sensitive xenografts; details: for average volume of the tumor masses: after 28 days; for average volume of the tumor masses / significance of difference in tumor size vs vehicle-treated (untreated) group: 5FU 60 mpk
[2] = system: HCT116p53KO xenografts; assay: In vivo treatment of drug-resistant xenografts; details: for average volume of the tumor masses: after 28 days, ibrutinib 25 mpk oral gavage once a day 5 days a week, 5FU 60 mg/kg i.p. twice a week
[3] = system: HCT116 overexpressing p65BTK (HCT116p65BTK); details: 200 μM 5FU, 72 hours
[4] = system: HCT116 cells; assay: Photographs of cells at 72 hours of incubation (FIG. 5b); details: 10 μM 5FU or 20 μM ibrutinib
[5] = system: HCT116p53KO, SW480, DLD-1 and HCT116 colon carcinoma cell lines; assay: In vitro cell proliferation assay (short term, CellTiter 96 AQueous); type: cell-based; details: ibrutinib 0 to 10 μM, up to 72 h
[6] = system: HCT116p53KO, SW480, HT-29, HCT116 and RKO colon carcinoma cell lines; assay: Cell viability, calcein assay, ibrutinib alone (FIG. 15); type: cell-based; details: 72 hs
[7] = system: SW480 colon cancer cells; assay: Cell viability, calcein assay (FIG. 6); type: cell-based; details: ibrutinib 20 μM with 5FU 200 μM or oxaliplatin 20 μM; oxaliplatin 20 μM alone; 72 hs
Description: At the end of the treatment cell viability was evaluated by calcein assay.

SMILES	average volume of the tumor masses ([1]; ibrutinib 25 mpk)	average volume of the tumor masses ([1]; ibrutinib 50 mpk)	significance of difference in tumor size vs vehicle-treated (untreated) group ([1]; ibrutinib 25 mpk)	percentage of proliferating (Ki67-positive) cells compared to vehicle or ibrutinib alone ([1]; ibrutinib 25 mpk, 5FU 60 mpk (FIG. 12b))	significance of difference in tumor size vs vehicle-treated (untreated) group ([1]; ibrutinib 50 mpk)	percentage of proliferating (Ki67-positive) cells compared to vehicle or ibrutinib alone ([1]; ibrutinib 50 mpk, 5FU 60 mpk (FIG. 13b))	average volume of the tumor masses [2]	significance of reduction in tumor volume vs the untreated group ([2]; ibrutinib 25 mpk, 5FU 60 mpk, end of treatment (FIG. 9b))	viability: response to the cytotoxic effect of 5FU [3]	toxicity seen in photographs, drugs used singularly [4]	capacity of the cells to proliferate [5]	growth-reducing and anti-proliferative effect on sensitive xenografts ([1]; ibrutinib alone, 25 or 50 mpk)	toxicity by cell type ([6]; highest concentration of ibrutinib (range 0 to 30 μM))	viability ([6]; ibrutinib up to 20 μM, all cell lines)	anti-tumoral effect (tumor volume vs untreated group) ([2]; ibrutinib 50 mpk alone (FIG. 10b))	reversion of drug resistance (viability) [7]
O=c1[nH]cc(F)c(=O)[nH]1 [5FU, 5-fluoro-1H,3H-pyrimidine-2,4-dione]	≈ 226 mm^3	≈ 226 mm^3	significant	significantly reduces the percentage of proliferating cells	significant	significantly reduces the percentage of proliferating cells	≈ 530 mm^3	not significant	become resistant to the cytotoxic effect of 5FU	no toxicity is evident						
C=CC(=O)N1CCC[C@@H](n2nc(-c3ccc(Oc4ccccc4)cc3)c3c(N)ncnc32)C1 [ibrutinib, 1-[(3R)-3-[4-amino-3-(4-phenoxyphenyl)pyrazolo[3,4-d]pyrimidin-1-yl]piperidin-1-yl]prop-2-en-1-one]	≈ 347 mm^3	≈ 372 mm^3	not statistically significant		not statistically significant		≈ 760 mm^3			no toxicity is evident	does not alter the capacity of the cells to proliferate	by itself is ineffective in these kind of tumors	preferentially toxic for 5FU drug-resistant, p53-null	decreases the viability in a dose-dependent manner	has an anti-tumoral effect on its own	
O=C(O)C(=O)O.[NH-][C@@H]1CCCC[C@H]1[NH-].[Pt+2] [oxaliplatin]																Reversion of resistance was not obtained
